These results are taken from patent US8637525B2, “Compounds for the reduction of beta-amyloid production” (Bristol-Myers Squibb Company, priority 2009, dated 2014).

Each structure is given as a SMILES string. Counter-ions that a name gives are not always drawn. Like-named read-outs stand apart in the source and are kept apart here.

The test system of this test is Aβ1-42 production. Put plainly: Cellular assay for inhibition of Aβ1-42 production (H4 APP751 SWE clone 8.20). The class given is cell-based. The settings on record: H4 APP751 SWE clone 8.20 cells, 19 h incubation. Put shortly:
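19 h cell treatment, 37 °C/5% CO2. Detection of secreted Aβ42 in the cell plate: 565 (Aβ42-specific, Wallac) and 26D6 (N-terminal, APC), overnight 4 °C. IC50 from fitted curves.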

The mark [1] stands for this setting: class symbols, read-out: Activity Rating (Aβ42 cellular IC50).
[2] abbreviates: 19 h, class symbols, read-out: Activity Rating (Aβ42 cellular IC50).
The mark [3] stands for this setting: 19 h, read-out: Activity Rating (Aβ42 cellular IC50), numeric value.

Regarding `CNc1nc(Nc2ccc(-n3cnc(Cl)c3)c(OC)c2)nc2c1CCC2c1ccc(OC(F)(F)F)cc1` (single isomer, unassigned) [Example 97A, N^2-(4-(4-chloro-1H-imidazol-1-yl)-3-methoxyphenyl)-N^4-methyl-7-(4-(trifluoromethoxy)phenyl)-6,7-dihydro-5H-cyclopenta[d]pyrimidine-2,4-diamine], under setting [1], the IC50 lay within 1.5 to 9.9 nM.

As to `COc1cc(Nc2nc3c(c(N4CC(N(C)C)C4)n2)CCC3c2ccc(F)cc2)ccc1-n1cnc(Cl)c1` (centres unmarked) [Example 34, N-(4-(4-chloro-1H-imidazol-1-yl)-3-methoxyphenyl)-4-(3-(dimethylamino)azetidin-1-yl)-7-(4-fluorophenyl)-6,7-dihydro-5H-cyclopenta[d]pyrimidin-2-amine], the IC50 under setting [2] was 10 to 100 nM.

Take `COc1cc(Nc2nc3c(c(N4CCC(F)C4)n2)COCC3c2ccc(F)cc2)ccc1-n1cnc(Cl)c1` (stereo in doubt) [Example 57B, N-(4-(4-chloro-1H-imidazol-1-yl)-3-methoxyphenyl)-8-(4-fluorophenyl)-4-((R)-3-fluoropyrrolidin-1-yl)-7,8-dihydro-5H-pyrano[4,3-d]pyrimidin-2-amine]: the IC50 under setting [2] was in the range of 100 to 1000 nM.

Regarding `COc1cc(Nc2nc3c(c(N(C)C)n2)COCC3c2ccccc2)ccc1-n1cnc(Cl)c1` (single isomer, unassigned) [Example 53A, N^2-(4-(4-Chloro-1H-imidazol-1-yl)-3-methoxyphenyl)-N^4,N^4-dimethyl-8-phenyl-7,8-dihydro-5H-pyrano[4,3-d]pyrimidine-2,4-diamine], under setting [1], the IC50 lay within 1.5 to 9.9 nM.

With `COc1cc(Nc2nc(N[C@H](C)C3CC3)c3c(n2)C(c2ccc(F)cc2)OC3)ccc1-n1cnc(Cl)c1` (stereo partly drawn) [Example 81, N2-(4-(4-chloro-1H-imidazol-1-yl)-3-methoxyphenyl)-N4-((R)-1-cyclopropylethyl)-7-(4-fluorophenyl)-5,7-dihydrofuro[3,4-d]pyrimidine-2,4-diamine, TFA], the IC50 under setting [2] fell in the range of 10 to 100 nM.

Consider `COc1cc(Nc2nc(N[C@@H](C)C3CC3)c3c(n2)C(c2ccc(F)cc2)CC3)ccc1-n1cnc(Cl)c1` (mixture of isomers) [Example 50, N2-(4-(4-chloro-1H-imidazol-1-yl)-3-methoxyphenyl)-N4-((S)-1-cyclopropylethyl)-7-(4-fluorophenyl)-6,7-dihydro-5H-cyclopenta[d]pyrimidine-2,4-diamine, TFA], for which, for the setting “class symbols, TFA, read-out: Activity Rating (Aβ42 cellular IC50)”, the IC50 was in the range of 1.5 to 9.9 nM.

`CNc1nc(Nc2ccc3nc[nH]c3c2)nc2c1CCC2c1ccccc1` (centres unmarked) [Example 253, N2-(1H-benzo[d]imidazol-6-yl)-N4-methyl-7-phenyl-6,7-dihydro-5H-cyclopenta[d]pyrimidine-2,4-diamine]: the IC50 under setting [3] was determined as 5900 nM.

Consider `CNc1nc(Nc2ccc(-n3ncnc3C)c(OC)c2)nc2c1CC[C@@H]2c1ccc(F)cc1` [Example 264B, (R)-7-(4-fluorophenyl)-N2-(3-methoxy-4-(5-methyl-1H-1,2,4-triazol-1-yl)phenyl)-N4-methyl-6,7-dihydro-5H-cyclopenta[d]pyrimidine-2,4-diamine], for which the IC50 under setting [2] is 10 to 100 nM.

Take `CNc1nc(Nc2ccc(-n3cnc(C)n3)c(OC)c2)nc2c1CC[C@H]2c1c(F)cc(F)cc1F` (single isomer, unassigned) [Example 270A]: under setting [2], the IC50 was 1.5 to 9.9 nM.

On to `CCN(C)c1nc(Nc2ccc(-n3cnc(Cl)c3)c(OC)c2)nc2c1COCC2c1ccccc1` (single isomer, unassigned) [Example 52B, N^2-(4-(4-Chloro-1H-imidazol-1-yl)-3-methoxyphenyl)-N^4-ethyl-N^4-methyl-8-phenyl-7,8-dihydro-5H-pyrano[4,3-d]pyrimidine-2,4-diamine], for which the IC50 under setting [1] was in the range of 10 to 100 nM.

Turning to `CNc1nc(Nc2ccc(-n3cnc(C)n3)c(OC)c2)nc2c1CC[C@@H]2c1ccccc1Cl` [Example 268B, (R)—N2-(3-methoxy-4-(3-methyl-1H-1,2,4-triazol-1-yl)phenyl)-7-(2-chlorophenyl)-N4-methyl-6,7-dihydro-5H-cyclopenta[d]pyrimidine-2,4-diamine], under setting [2], the IC50 lay in the range of 10 to 100 nM.

With `CNc1nc(Nc2ccc(C#N)c(OC(F)(F)F)c2)nc2c1CCC2c1ccccc1` (centres unmarked) [Example 246, 4-(4-(methylamino)-7-phenyl-6,7-dihydro-5H-cyclopenta[d]pyrimidin-2-ylamino)-2-(trifluoromethoxy)benzonitrile], under setting [3], the IC50 was determined as 31 nM.

With `COc1cc(Nc2nc3c(c(N(C)C)n2)CN(S(C)(=O)=O)CC3c2ccccc2)ccc1-n1cnc(Cl)c1` (centres unmarked) [Example 147, N2-(4-(4-chloro-1H-imidazol-1-yl)-3-methoxyphenyl)-N4,N4-dimethyl-6-(methylsulfonyl)-8-phenyl-5,6,7,8-tetrahydropyrido[4,3-d]pyrimidine-2,4-diamine], the IC50 under setting [2] is 10 to 100 nM.

For the compound `CCN(C)c1nc(Nc2ccc(-n3cnc(Cl)c3)c(OC)c2)nc2c1CCNC2c1ccc(F)cc1` (centres unmarked) [Example 166, N2-(4-(4-chloro-1H-imidazol-1-yl)-3-methoxyphenyl)-N4-ethyl-8-(4-fluorophenyl)-N4-methyl-5,6,7,8-tetrahydropyrido[3,4-d]pyrimidine-2,4-diamine], the IC50 under setting [2] is 100 to 1000 nM.

Turning to `CCNc1nc(Nc2ccc(-n3cnc(C)n3)c(F)c2)nc2c1CN(C(=O)C1CC1)CC2c1ccccc1` (centres unmarked) [Example 143B, cyclopropyl(4-(ethylamino)-2-(3-fluoro-4-(3-methyl-1H-1,2,4-triazol-1-yl)phenylamino)-8-phenyl-7,8-dihydropyrido[4,3-d]pyrimidin-6(5H)-yl)methanone], the IC50 under setting [3] came to 430 nM.

For `COc1cc(Nc2nc3c(c(N4CC(F)(F)C4)n2)CCC3c2ccc(OC(F)(F)F)cc2)ccc1-n1cnc(Cl)c1` (racemic) [Example 99, N-(4-(4-Chloro-1H-imidazol-1-yl)-3-methoxyphenyl)-4-(3,3-difluoroazetidin-1-yl)-7-(4-(trifluoromethoxy)phenyl)-6,7-dihydro-5H-cyclopenta[d]pyrimidin-2-amine], under setting [3], the IC50 was 19 nM.

For `COc1cc(Nc2nc3c(c(N4CCC(F)C4)n2)COCC3c2ccc(F)cc2)ccc1-n1cnc(Cl)c1` (stereo in doubt) [Example 57A, N-(4-(4-chloro-1H-imidazol-1-yl)-3-methoxyphenyl)-8-(4-fluorophenyl)-4-((R)-3-fluoropyrrolidin-1-yl)-7,8-dihydro-5H-pyrano[4,3-d]pyrimidin-2-amine], under setting [3], the IC50 was determined as 14 nM.

For the compound `CCC1CCCN1c1nc(Nc2ccc(-n3cnc(Cl)c3)c(OC)c2)nc2c1CCC2c1ccc(F)cc1` (single isomer, unassigned) [Example 24B, N-(4-(4-chloro-1H-imidazol-1-yl)-3-methoxyphenyl)-4-(2-ethylpyrrolidin-1-yl)-7-(4-fluorophenyl)-6,7-dihydro-5H-cyclopenta[d]pyrimidin-2-amine], the IC50 under setting [3] was 200 nM.

On to `CNc1nc(Nc2ccc(-n3ncnc3C)c(F)c2)nc2c1CCC2c1ccccc1` (single isomer, unassigned) [Example 3B, N^2-(3-fluoro-4-(5-methyl-1H-1,2,4-triazol-1-yl)phenyl)-N^4-methyl-7-phenyl-6,7-dihydro-5H-cyclopenta[d]pyrimidine-2,4-diamine], for which the IC50 under setting [1] fell in the range of 10 to 100 nM.

In the case of `CCNc1nc(Nc2ccc(-n3cnc(C)n3)c(F)c2)nc2c1CN(C(=O)C1CC1)CC2c1ccccc1` (centres unmarked) [Example 143, cyclopropyl(4-(ethylamino)-2-(3-fluoro-4-(3-methyl-1H-1,2,4-triazol-1-yl)phenylamino)-8-phenyl-7,8-dihydropyrido[4,3-d]pyrimidin-6(5H)-yl)methanone], the IC50 under setting [2] was 10 to 100 nM.

Turning to `COc1cc(Nc2nc3c(c(N(C)C)n2)CCC3c2ccccc2)ccc1-n1cnc(Cl)c1` (single isomer, unassigned) [Example 4B, N^2-(4-(4-chloro-1H-imidazol-1-yl)-3-methoxyphenyl)-N^4,N^4-dimethyl-7-phenyl-6,7-dihydro-5H-cyclopenta[d]pyrimidine-2,4-diamine], under setting [1], the IC50 lay in the range of 10 to 100 nM.

Turning to `CNc1nc(Nc2ccc(-n3cnc(C)n3)c(OC)c2)nc2c1CCC2c1ccc(F)cc1` (single isomer, unassigned) [Example 44A, 7-(4-fluorophenyl)-N2-(3-methoxy-4-(3-methyl-1H-1,2,4-triazol-1-yl)phenyl)-N4-methyl-6,7-dihydro-5H-cyclopenta[d]pyrimidine-2,4-diamine], the IC50 under setting [2] lay within 1.5 to 9.9 nM.

For the compound `COc1cc(Nc2nc3c(c(N(C)C)n2)CCC3c2ccc(F)cc2)ccc1-n1cnc(Cl)c1` (single isomer, unassigned) [Example 46B, N^2-(4-(4-chloro-1H-imidazol-1-yl)-3-methoxyphenyl)-7-(4-fluorophenyl)-N^4,N^4-dimethyl-6,7-dihydro-5H-cyclopenta[d]pyrimidine-2,4-diamine], the IC50 under setting [1] is 10 to 100 nM.

On to `Cc1ncnn1-c1ccc(Nc2nc3c(c(N4CC(F)(F)C4)n2)CCC3c2ccc(F)cc2)cc1F` (single isomer, unassigned) [Example 16A, 4-(3,3-difluoroazetidin-1-yl)-N-(3-fluoro-4-(5-methyl-1H-1,2,4-triazol-1-yl)phenyl)-7-(4-fluorophenyl)-6,7-dihydro-5H-cyclopenta[d]pyrimidin-2-amine], for which the IC50 under setting [1] lay within 1.5 to 9.9 nM.

With `CCNc1nc(Nc2ccc(-n3cnc(Cl)c3)c(OC)c2)nc2c1CCOC2c1ccc(F)cc1` (centres unmarked) [Example 88B, N2-(4-(4-chloro-1H-imidazol-1-yl)-3-methoxyphenyl)-N4-ethyl-8-(4-fluorophenyl)-6,8-dihydro-5H-pyrano[3,4-d]pyrimidine-2,4-diamine], the IC50 under setting [2] was 10 to 100 nM.

Consider `CCN(C)c1nc(Nc2ccc(-n3cnc(Cl)c3)c(OC)c2)nc2c1CCCC2c1ccccc1` (single isomer, unassigned) [Example 124B, N^2-(4-(4-Chloro-1H-imidazol-1-yl)-3-methoxyphenyl)-N^4-ethyl-N^4-methyl-8-phenyl-5,6,7,8-tetrahydroquinazoline-2,4-diamine], for which, under setting [1], the IC50 was in the range of 10 to 100 nM.
